According to ChEMBL document CHEMBL1681747, “Novel second generation analogs of eribulin. Part II: Orally available and active against resistant tumors in vivo” (Bioorg Med Chem Lett, 2011):
Active and inactive are the calls of the source. No cut-off for these calls is given here.

Assays:
HCT-15 = test: Cytotoxicity against human HCT15 cells; format: functional, cell-based
DLD-1 [1] = test: Cytotoxicity against human DLD1 cells; format: functional, cell-based
[2] = AUC (0 to infinity) in BALB/c mouse at 5 mg/kg; format: ADME, organism-based; parameters: time infinity, dose 5 mg/kg; settings: plasma
[3] = Clearance in BALB/c mouse at 5 mg/kg, iv; format: ADME, organism-based; parameters: dose 5 mg/kg, route intravenous; settings: in vivo
[4] = Half life in BALB/c mouse at 5 mg/kg; format: ADME, organism-based; parameters: dose 5 mg/kg; settings: in vivo
[5] = Oral bioavailability in BALB/c mouse at 5 mg/kg; format: ADME, organism-based; settings: in vivo
[6] = Tmax in BALB/c mouse at 5 mg/kg; format: ADME, organism-based; parameters: dose 5 mg/kg; settings: in vivo
[7] = Volume of distribution at steady state in BALB/c mouse at 5 mg/kg, iv; format: ADME, organism-based; parameters: dose 5 mg/kg, route intravenous; settings: in vivo, read-out: Vdss
[8] = Tmax in BALB/c mouse at 10 mg/kg; format: ADME, organism-based; parameters: dose 10 mg/kg; settings: in vivo
[9] = Half life in BALB/c mouse at 10 mg/kg; format: ADME, organism-based; parameters: dose 10 mg/kg; settings: in vivo
[10] = Clearance in BALB/c mouse at 10 mg/kg, iv; format: ADME, organism-based; parameters: dose 10 mg/kg, route intravenous; settings: in vivo
[11] = Oral bioavailability in BALB/c mouse at 10 mg/kg; format: ADME, organism-based; settings: in vivo
[12] = AUC (0 to infinity) in BALB/c mouse at 10 mg/kg; format: ADME, organism-based; parameters: time infinity, dose 10 mg/kg; settings: plasma
[13] = Volume of distribution at steady state in BALB/c mouse at 10 mg/kg, iv; format: ADME, organism-based; parameters: dose 10 mg/kg, route intravenous; settings: in vivo, read-out: Vdss
DLD-1 [14] = test: Antitumor activity against human DLD1 cells xenografted in athymic mouse assessed as tumor stasis at 1.3 to 3 mg/kg, iv administered 2 weeks after tumor implantation qd for weekly 3 days; format: functional, organism-based
DLD-1 [15] = test: Antitumor activity against human DLD1 cells xenografted in iv dosed athymic mouse assessed as tumor growth inhibition administered qd for weekly 3 days; format: functional, organism-based
LOX = test: Antitumor activity against human LOX cells xenografted in athymic mouse assessed as long term tumor regression at 0.95 to 3 mg/kg, po administered 6 days after tumor implantation qd for 2 weeks; format: functional, organism-based

AUC(0-inf) [2]	clearance [3]	half-life [4]	bioavailability [5]	Tmax [6]	Vd [7]	Tmax [8]	half-life [9]	clearance [10]	bioavailability [11]	AUC(0-inf) [12]	Vd [13]	Compound	IC50 (HCT-15)	IC50 (DLD-1 [1])	Activity (DLD-1 [14])	Activity (DLD-1 [15])	Activity (LOX)
63 ng·h/mL	48.5 mL/min/kg	246 min	11.3%	5 min	4.78 L/kg							C=C1C[C@@H]2CC[C@@]34C[C@H]5O[C@H]6[C@@H](O3)[C@H]3O[C@H](CC[C@@H]3O[C@H]6[C@H]5O4)CC(=O)C[C@@H]3[C@@H](OC)[C@@H](CCNCC(F)F)O[C@H]3C[C@H]3O[C@@H](CC[C@@H]1O2)C[C@@H](C)C3=C	3.11 nM	3.16 nM			
236 ng·h/mL	47 mL/min/kg	102 min	13.3%	5 min	3.64 L/kg							C=C1C[C@@H]2CC[C@@]34C[C@H]5O[C@H]6[C@@H](O3)[C@H]3O[C@H](CC[C@@H]3O[C@H]6[C@H]5O4)CC(=O)C[C@@H]3[C@@H](OC)[C@@H](CC(=O)CN4CCOCC4)O[C@H]3C[C@H]3O[C@@H](CC[C@@H]1O2)C[C@@H](C)C3=C	0.46 nM	0.7 nM			
						5 min	924 min	19.8 mL/min/kg	3.2%	161 ng·h/mL	4.95 L/kg	C=C1C[C@@H]2CC[C@@]34C[C@H]5O[C@H]6[C@@H](O3)[C@H]3O[C@H](CC[C@@H]3O[C@H]6[C@H]5O4)CC(=O)C[C@@H]3[C@@H](OC)[C@@H](C[C@H](O)CN)O[C@H]3C[C@H]3O[C@@H](CC[C@@H]1O2)C[C@@H](C)C3=C [ERIBULIN]					
1090 ng·h/mL	11.3 mL/min/kg	54 min	14.9%	5 min	0.92 L/kg							C=C1C[C@@H]2CC[C@@]34C[C@H]5O[C@H]6[C@@H](O3)[C@H]3O[C@H](CC[C@@H]3O[C@H]6[C@H]5O4)CC(=O)C[C@@H]3[C@@H](OC)[C@@H](C[C@@H](CN4CCOCC4)OC)O[C@H]3C[C@H]3O[C@@H](CC[C@@H]1O2)C[C@@H](C)C3=C	0.2 nM	0.23 nM	Active	Dose-dependent effect	Active
